Consider seven molecules from publication PMC3253113, “Presenilin Is the Molecular Target of Acidic γ-Secretase Modulators in Living Cells” (PLoS ONE, 2012).

Data set [1] deals with T1, PSEN1-NTF (Homo sapiens, UniProt P49768). To be noted: N2a-ANPP membranes, cell-free, 0.5 µM AR243 co-incubated with 100 µM competitor.
Data set [2] concerns Aβ42 levels. Put plainly: Aβ42-lowering activity in PS70 cells, sandwich ELISA of conditioned media. To be noted: CHO, 24 h, read-out: IC50 (Aβ42), Aβ42-lowering activity. For orientation: ELISA stands for enzyme-linked immunosorbent assay.
The target in data set [3] is APH-1 (Homo sapiens, UniProt Q96BI3). As to the kind of experiment: Photo-affinity labeling in vitro, N2a-ANPP membrane preparations. The note with it: N2a-ANPP membranes, 0.25% CHAPSO, 0.5 µM photo-probe, UV. It is filed as binding.
In data set [4] the target is Nicastrin (Homo sapiens, UniProt Q92542). The description is as above. It is filed as binding. The note with it: N2a-ANPP membranes, 0.25% CHAPSO, 0.5 µM photo-probe, UV.
Data set [5] concerns the target T2, PSEN1-CTF (Homo sapiens, UniProt P49768). The data set is described as above. Format: binding. The note with it: N2a-ANPP membranes, 0.25% CHAPSO, 0.5 µM photo-probe, UV.
In data set [6] the target is T3, endogenous PSEN1-NTF (Homo sapiens, UniProt P49768).
T3 construct: host or cells: HEK293T membrane preparations
As to the kind of experiment: Photo-affinity labeling in vitro, HEK293T membrane preparations. It is filed as binding.

Data set [7] deals with T2, PSEN1-CTF. As to the kind of experiment: Photo-affinity labeling in living N2a-ANPP cells. Format: cell-based. The note with it: live N2a-ANPP cells, 0.2 µM photo-probe, UV 365 and 302 nm. As for the experimental part: (§1) Subsequently, cells were UV-irradiated on ice for 30 min at 365 nm and for 30 min at 302 nm. As negative controls, UV irradiation was omitted or cells were incubated with DMSO vehicle or compound AR80, which was structurally identical to AR243 but lacked the biotin moiety. Cells were washed and harvested in PBS and incubated with hypotonic buffer (10 mM Tris pH 7.4, 1x protease inhibitor mix) for 10 min on ice. To prepare cellular membranes, cells were passed 10 times through a 30G needle and centrifuged at 800×g, 10 min, 4°C. The post-nuclear supernatant was centrifuged at 18.000×g, 45 min, 4°C. […] The total protein concentration of the membrane preparations was determined by BCA assay, concentrations and volumes of each sample were adjusted, and 5x RIPA buffer was added to a final concentration of 1x RIPA buffer (150 mM NaCl, 1.0% NP-40, 0.5% sodium deoxycholate, 0.1% SDS, […], pH 8.0). […] Protein concentrations were again determined and adjusted to equal levels prior to the addition of streptavidin magnetic beads (Invitrogen). […] The eluted material was separated on 12% Bis-Tris gels and analyzed by Western blotting. Chemiluminescence was recorded with a LAS 3000 ECL camera system (Fuji Photo Film GmbH, Duesseldorf, Germany) or on CL-XPosure film (Fisher Scientific GmbH, Schwerte, Germany).

The target of data set [8] is T1, PSEN1-NTF. As to the kind of experiment: Photo-affinity labeling in living N2a-ANPP cells. Format: cell-based. The note with it: live N2a-ANPP cells, 0.2 µM photo-probe, UV 365 and 302 nm. As for the experimental part:
as §1

For data set [9], the system named is Aβ38 levels. Put plainly: Aβ38 levels in PS70 cells, sandwich ELISA of conditioned media. To be noted: CHO cells with wild type APP and PSEN1, increasing concentrations.
The target of data set [10] is T2, PSEN1-CTF. As to the kind of experiment: Photo-affinity labeling in vitro, HEK293T membrane preparations. Format: binding. Details: host or cells: HEK293T membrane preparations. As for the experimental part: as §1, with “Germany). […]” for “Germany).”
Data set [11] has as its target PEN-2 (Homo sapiens, UniProt Q9NZ42). Put plainly: Photo-affinity labeling in vitro, N2a-ANPP membrane preparations. It is filed as binding. The note with it: N2a-ANPP membranes, 0.25% CHAPSO, 0.5 µM photo-probe, UV.
Data set [12] concerns N2a-ANPP cells. Put plainly: Cell viability, alamarBlue reagent. It is filed as cell-based. As for the experimental part: Cell viability was assessed using the alamarBlue® reagent (Invitrogen). N2a-ANPP cells were seeded at low density in 96-well plates (4000 cells/well) and cultured for 24 h. The cells were then treated in duplicates with increasing concentrations of the respective compounds or DMSO as vehicle for an additional 24 h. 20 µl alamarBlue® was added to cells cultured in 200 µl medium and incubated overnight. Absorbance was measured with a Paradigm™ microplate reader at 570 nm, using 600 nm as the reference wavelength, and percent viability of vehicle control was calculated.
For orientation: The colour change of resazurin is a common sign of viable cells or microbes.

The target of data set [13] is T1, PSEN1-NTF. As to the kind of experiment: Competition of photo-probe AR243 binding, HEK293T membrane preparations. To be noted: HEK293T membranes, excess of competitor (100 µM).

pIC50: −log10 of the molar value. “Also recorded” adds a separate entry of the source. Where two headings read alike, the source gives them in different places. Where only a bound is given, the exact number is not on record here.

On to `COc1cc(/C=C2\CCCN([C@@H](C)c3ccc(F)cc3)C2=O)ccc1-n1cnc(C)c1` [E-2012], for which the “Competition of AR243 binding to PSEN1-NTF” value (from here on “Competition of AR243 binding”) in data set [1] was “more modest reductions; also recorded: only partially competed”. In addition, the negative logarithm of the IC50 (pIC50) in [2] was 7.28.

Consider `O=C(O)CC1CCN(C(C#CCCCCOC(=O)CCCC[C@@H]2SC[C@@H]3NC(=O)N[C@@H]32)c2ccc(C3(C(F)(F)F)N=N3)cc2)C(c2ccc(C(F)(F)F)cc2)C1` (stereo partly drawn) [AR243, 2-(1-(7-((5-((3aS,4S,6aR)-2-oxohexahydro-1H-thieno[3,4-d]imidazol-4-yl)pentanoyl)oxy)-1-(4-(3(trifluoromethyl)-3H-diazirin-3-yl)phenyl)hept-2-yn-1-yl)-2-(4(trifluoromethyl)phenyl)piperidin-4-yl)acetic acid], for which, in data set [3], the “Photo-affinity labeling of APH-1 (Western blotting)” value is “did not demonstrate binding”. In addition, in data set [4], the “Photo-affinity labeling of Nicastrin (Western blotting)” value is “did not demonstrate binding”. The “Photo-affinity labeling of PSEN1-CTF (Western blotting)” value in [5] was “did not demonstrate binding”; in data set [10], “not PSEN1-CTF”. Besides, in data set [6], the “Photo-affinity labeling of endogenous PSEN1-NTF (Western blotting)” value was “labeling of endogenous PSEN1-NFT”. The “Photo-affinity labeling of PSEN1-CTF in living cells (Western blotting)” value in [7] is given as “did not demonstrate binding”. In data set [8], the “Photo-affinity labeling of PSEN1-NTF in living cells (Western blotting)” value is “efficient labeling of PSEN1-NTF; also recorded: demonstrated binding of the photo-probe to PSEN1-NTF”. Moreover, the “Effect on Aβ38 levels” value in [9] is on record as “concomitant increase in Aβ38 levels”. Moreover, the “Photo-affinity labeling of PEN-2 (Western blotting)” value in data set [11] was “did not demonstrate binding”. Moreover, the pIC50 in [2] is 6.54.

For the molecule `CC(C)C#CC(c1ccc(Cl)cc1)N1CCC(CC(=O)O)CC1c1ccc(C(F)(F)F)cc1` (centres unmarked) [BB25], the “Competition of AR243 binding” value in data set [1] was “efficiently reduced the labeling signal”. Further, the “Concentrations with dose-dependent cytotoxicity” value in [12] was more than 10 µM. Moreover, the “Displacement of AR243 from PSEN1-NTF” value in data set [13] is given as “caused displacement of the photo-probe”. Also, in [2], the negative logarithm of the IC50 (pIC50) is 7.06.

With `COc1cc(-c2cc(C)c(NC(C)c3ccc(F)cc3)nn2)ccc1-n1cnc(C)c1` (centres unmarked) [Compound 1], the “Competition of AR243 binding” value in [1] is “reduced binding of the photo-probe as effectively as the acidic compound JNJ-40418677”. Also, the pIC50 in data set [2] was 7.27.

Take `CC(C)C#CC(c1ccc(C2(C(F)(F)F)N=N2)cc1)N1CCC(CC(=O)O)CC1c1ccc(C(F)(F)F)cc1` (centres unmarked) [AR80]: the negative-log IC50 (pIC50) in data set [2] is 6.72.

As for `CC(C)CC(C(=O)O)c1cc(-c2ccc(C(F)(F)F)cc2)cc(-c2ccc(C(F)(F)F)cc2)c1` (centres unmarked) [JNJ-40418677], the negative logarithm of the IC50 (pIC50) in data set [2] was 6.54.

In the case of `CCOc1cc(C)c(Nc2ccnc(N3CCN(c4ccc(OC)cc4)C(C)(C)C3)n2)cc1C(C)C` [Compound 2], the “Competition of AR243 binding” value in data set [1] is given as “only partially competed”; in data set [1] (listed as compound 2) it was “more modest reductions”. Further, the negative logarithm of the IC50 (pIC50) in data set [2] is 7.11.

As a reminder, the pIC50 is the IC50 on a negative log10 scale, so that one unit is a factor of ten.
